From patent US11524051B2, “Methods of treating fungal infections” (United States of America as represented by the Secretary of …, priority 2017, dated 2022)
Square brackets hold non-standard residues; d marks the D form. Ends that are not written are not given here. Peptide text beside a SMILES is read from it.

Experiments:
human red blood cells = experiment: Hemolysis assay; assay type: cell-based; details: 1 hour at 37° C., versus untreated controls
Procedure: The hemolytic activity of BmKn2, dBmKn2, Kn2-7, dKn2-7, and melittin was assessed using human red blood cells (RBCs). The RBCs were prepared from human whole blood (BioreclamationIVT, Westbury, N.Y., USA) according to a previous report (Evans et al, J. Vis. Exp. (73), 50166, doi:10.3791/50166 (2013)). In brief, human whole blood was centrifuged, and the RBCs were washed with PBS 3-4 times and then diluted 1:20 of the original volume in PBS. Peptides at various concentrations from 0-400 μg/mL in PBS were mixed with an equal volume of the diluted RBCs in a 96-well microtiter plate and allowed to incubate for 1 hour at 37° C. The plate was then centrifuged at 500 g for 5 minutes and 100 μL of the supernatant was transferred to a 96-well, transparent, flat-bottomed plate. Sample absorbances were read at 490 nm using a BioTek Synergy HT plate reader (BioTek, Winooski, Vt.). PBS was used as a negative control (blank), and 1% Triton X-100 was used as a positive control for 100% hemolysis. The percent hemolysis for the unknown samples was calculated according to the following equation: […]

[1] = Stability of peptides in human serum (LC-MS); assay type: in vitro ADME; details: 37° C.; for remaining at 24 h, 50 μg/mL: 25% human serum (v/v), pH 7, 25% human serum in RPMI 1640, after 24 hours, read-out: peptide remaining, percent of t0; for reduction of peptide amount: 100% culture medium (RPMI 1640), 24 hours, 50 μg/mL
Procedure: The stability of Kn2-7 and dKn2-7 (50 μg/mL) were studied in 25% human serum (v/v) (BioreclamationIVT, Westbury, N.Y., USA) in 1640 RPMI media (made with 165 mM MOPS, pH 7.0) or in 100% 1640 RPMI medium at 37° C. (H. Jenssen, S. I. Aspmo, Serum stability of peptides, Peptide-Based Drug Design (2008) 177-186.) At predetermined time points, 100 μL aliquots of each solution was removed and thoroughly mixed with 200 μL of 96% ethanol. This was incubated on ice for 15 minutes followed by centrifugation at 10,000 g for 5 minutes to pellet the precipitated proteins. The supernatant (200 μL) was carefully removed, spiked with peptide 1018 (VRLIVAVRIWRR; SEQ ID NO. 3) at 1 μg/mL as the internal standard, and stored at −20° C. prior to liquid chromatography-mass spectrometry (LC/MS) analysis. Peptide 1018 is a synthetic peptide derived from bactenecin, a bovine neutrophil host defense peptide. (Mansour, S. C., et al. (2015) J. Pept. Sci., 21, 323-329. doi: 10.1002/psc.2708. The peptide sequence was synthesized by Genemed Synthesis Inc. (San Antonio, Tex.).
Liquid chromatography was performed on a Shimadzu HPLC system (Shimadzu Scientific Instruments, Inc., Columbia, Md.). A 10-μl aliquot of the sample was injected into an Agilent ZORBAX Eclipse XDB 80 Å C18 (2.1×50 mm, 5 μm) column (Agilent, Santa Clara, Calif.) held at 40° C. Mass spectrometric analysis was carried out on an AB Sciex API 4000 mass spectrometer (AB Sciex, Framingham, Mass.) with an electrospray ionization (ESI) interface and triple quadrupole mass analyzer. The peak areas of Kn2-7 and dKn2-7 on the LC-MS chromatograms were standardized to the peak area for peptide 1018.

C. albicans = system: C. albicans; design: unit not given beside the values; details: compared with dKn2-7; cited from earlier work

Row | Compound | concentration at which a significant increase in hemolysis starts (human red blood cells) [µg/mL] | remaining at 24 h, 50 μg/mL [1] [%] | reduction of peptide amount [1] | MIC against C. albicans, times higher than dKn2-7 (C. albicans) [×]
1 | CC[C@@H](C)[C@@H](NC(=O)[C@H](N)Cc1ccccc1)C(=O)NCC(=O)N[C@H](C)C(=O)N[C@@H](C(=O)N[C@H](C)C(=O)N[C@H](CCCNC(=N)N)C(=O)N[C@H](CC(C)C)C(=O)N[C@H](CC(C)C)C(=O)N[C@H](CO)C(=O)N[C@H](CCCCN)C(=O)N[C@@H](C(=O)N[C@H](Cc1ccccc1)C(=O)O)[C@H](C)CC)[C@H](C)CC [dBmKn2] (H-[dF][dI]G[dA][dI][dA][dR][dL][dL][dS][dK][dI][dF]-OH; N-terminus and C-terminus assumed) | 100 |  |  | 
2 | CC[C@@H](C)[C@@H](NC(=O)[C@H](N)Cc1ccccc1)C(=O)N[C@H](CCCCN)C(=O)N[C@H](CCCNC(=N)N)C(=O)N[C@@H](C(=O)N[C@H](C)C(=O)N[C@H](CCCNC(=N)N)C(=O)N[C@H](CC(C)C)C(=O)N[C@H](CC(C)C)C(=O)N[C@H](CCCNC(=N)N)C(=O)N[C@H](CCCCN)C(=O)N[C@@H](C(=O)N[C@H](Cc1ccccc1)C(=O)O)[C@H](C)CC)[C@H](C)CC [dKn2-7] (H-[dF][dI][dK][dR][dI][dA][dR][dL][dL][dR][dK][dI][dF]-OH; N-terminus and C-terminus assumed) | 200 | ~43 | about 20% | 
3 | CC[C@H](C)[C@H](NC(=O)CN)C(=O)NCC(=O)N[C@@H](C)C(=O)N[C@H](C(=O)N[C@@H](CC(C)C)C(=O)N[C@@H](CCCCN)C(=O)N[C@H](C(=O)N[C@@H](CC(C)C)C(=O)N[C@H](C(=O)N[C@H](C(=O)NCC(=O)N[C@@H](CC(C)C)C(=O)N1CCC[C@H]1C(=O)N[C@@H](C)C(=O)N[C@@H](CC(C)C)C(=O)N[C@H](C(=O)N[C@@H](CO)C(=O)N[C@@H](Cc1c[nH]c2ccccc12)C(=O)N[C@H](C(=O)N[C@@H](CCCCN)C(=O)N[C@@H](CCCNC(=N)N)C(=O)N[C@@H](CCCCN)C(=O)N[C@@H](CCCNC(=N)N)C(=O)N[C@@H](CCC(N)=O)C(=O)N[C@@H](CCC(N)=O)C(N)=O)[C@@H](C)CC)[C@@H](C)CC)[C@@H](C)O)[C@@H](C)O)C(C)C)C(C)C [melittin, reference compound] | ≥ 3.125 |  |  | 
4 | FIGAIARLLSKIF [BmKn2, FIGAIARLLSKIF (SEQ ID NO. 1)] | 100 |  |  | 
5 | FIKRIARLLRKIF [Kn2-7, FIKRIARLLRKIF (SEQ ID NO. 2)] | 200 | ~9 | about 20% | 
6 | LL-37: well-studied LL-37 peptide |  |  |  | ~3
